This passage reports Activity results from patent publication US7452887B2, “Quinoline- and isoquinoline-based compounds exhibiting ATP-utilizing enzyme inhibitory activity, and compositions, and uses thereof” (Amphora Discovery Corporation, priority 2004, dated 2008).

For the assay, the target named is MAPKAPK2 (Homo sapiens, UniProt P49137). Nature of the assay: HTS ATP-utilizing enzyme assay, off-chip mobility-shift (Caliper HTS 250). To be noted: test compound 10 μM, kinase listed = active (greater than six-sigma from the mean activity of inactive compounds). The format is biochemical. The text has this: The following procedures describe the reagent and plate preparation for a HTS of an ATP-utilizing enzyme, such as a protein kinase, run in an off-chip mobility-shift assay format. The following provides an HTS protocol for running a protein kinase HTS screen on a Caliper HTS 250 microfluidics system. The following parameters are dependent on the protein kinase used and can be determined by one skilled in the art as part of a typical assay development process. For example, the peptide substrate used can be identified from the current literature, by screening a peptide library of potential protein kinase substrates, or by other applicable means accepted in the field.
Sequence of MAPKAPK2 (P49137 whole entry): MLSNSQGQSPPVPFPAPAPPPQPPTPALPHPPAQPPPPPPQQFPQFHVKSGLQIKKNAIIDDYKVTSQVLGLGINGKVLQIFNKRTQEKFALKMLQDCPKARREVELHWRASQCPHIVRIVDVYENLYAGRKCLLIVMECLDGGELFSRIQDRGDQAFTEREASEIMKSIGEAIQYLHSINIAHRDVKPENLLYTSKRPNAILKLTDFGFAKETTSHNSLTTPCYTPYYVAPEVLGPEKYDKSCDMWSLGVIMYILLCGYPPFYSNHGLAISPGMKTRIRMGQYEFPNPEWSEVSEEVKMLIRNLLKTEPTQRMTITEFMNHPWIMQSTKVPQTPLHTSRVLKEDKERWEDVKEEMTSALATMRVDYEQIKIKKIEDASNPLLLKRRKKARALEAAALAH
The following table provides typical screen assay parameters appropriate for a Caliper HTS 250 microfluidics system.
The reagents and buffers listed in the following table are generally applicable for developing and running an HTS screen on a human protein kinase using the Caliper HTS 250 system.
The following reagents were prepared using the previously described buffers.
A 2× Master Buffer solution was prepared by combining 200 mL of 1 M HEPES, pH 7.5, 2 mL of 10% Triton X-100, 20 mL of 10% BSA, and 778 mL of H2O.
A TCB Buffer solution was prepared by combining 125 mL of 2× Master Buffer, 10 mL of 0.5 M EDTA, 6.25 mL of 4% coating reagent, 1.01 mL of 100% DMSO, and 107.74 mL H2O.
Assays to determine the kinase inhibitory activity of compounds of the present disclosure were performed using a Caliper HTS 250 microfluidics device, Greiner U-bottom assay plates, a Multidrop for transfer of reagents, and Biomek FX (AMNCBM03) software. Initially, 2.4 μL of a 1 mM solution of a test compound in 100% DMSO was added to a well of the Greiner U-bottom plate. A single Greiner U-bottom plate having 24×16 wells could include multiple test compounds. […] Using the Biomek FX, 10 μL of 0.5 M EDTA was added by the span-8 to wells, indicated as 100% Control and 2.4 μL of 100% DMSO was added by the span-8 to wells, indicated as 0% Control. […] The total reaction volume in each well was 25 μL, and the concentration of the test compound was 10 μM. The assay plate was incubated for 2.5 hrs at 20° C. to 22° C. […] The inhibition of the ATP-utilizing enzyme, such as a particular protein kinase, was determined by measuring the ratio of the peptide substrate to phosphorylated product for each well of the assay plate using the Caliper HTS 250 system.
The use of six-sigma statistical limits represents a conservative method for declaring potential hits among targets. The six-sigma activity, as well as the mean population activity, can be different for each target enzyme.

As for `CN(C)Cc1ccccc1-c1ccc2nccc(Nc3ccc(N4CCN(C)CC4)cc3)c2c1` [6-(2-((dimethylamino)methyl)phenyl)-N-(4-(4-methylpiperazin-1-yl)phenyl)quinolin-4-amine], the Activity result was “MAPKAPK2”.
The same measure for `CN(C)C1CCN(c2ccc(Nc3ccnc4ccc(-c5ccc(Cl)nc5)cc34)cc2)C1` (centres unmarked) [6-(6-chloropyridin-3-yl)-N-(4-(3-(dimethylamino)pyrrolidin-1-yl)phenyl)quinolin-4-amine]: “MAPKAPK2”.
The same measure for `COc1ccc(-c2ccc3nccc(Nc4ccc(N5CCC(N(C)C)C5)cc4)c3c2)cc1F` (centres unmarked) [N-(4-(3-(dimethylamino)pyrrolidin-1-yl)phenyl)-6-(3-fluoro-4-methoxyphenyl)quinolin-4-amine]: “MAPKAPK2”; for `COc1cc(-c2ccc3nccc(Nc4ccc(N5CCC(N(C)C)C5)cc4)c3c2)ccc1Cl` (centres unmarked) [6-(4-chloro-3-methoxyphenyl)-N-(4-(3-(dimethylamino)pyrrolidin-1-yl)phenyl)quinolin-4-amine]: “MAPKAPK2”.
Under `Cc1ccc(-c2ccc3nccc(Nc4ccc(N5CCC(N(C)C)C5)cc4)c3c2)cc1` (centres unmarked) [N-(4-(3-(dimethylamino)pyrrolidin-1-yl)phenyl)-6-p-tolylquinolin-4-amine] stands “MAPKAPK2”.
Consider `COc1ccc(-c2ccc3nccc(Nc4ccc(N5CCN(C6CCCCC6)CC5)cc4)c3c2)cc1` [N-(4-(4-cyclohexylpiperazin-1-yl)phenyl)-6-(4-methoxyphenyl)quinolin-4-amine], for which the Activity entry is “MAPKAPK2”.
The same measure for `CN(C)[C@@H]1CCN(c2ccc(Nc3ccnc4ccc(-c5ccc(Cl)cc5)cc34)cc2)C1` [(R)-6-(4-chlorophenyl)-N-(4-(3-(dimethylamino)pyrrolidin-1-yl)phenyl)quinolin-4-amine]: “MAPKAPK2”.
The same measure for `CCC(C)N1CCN(c2ccc(Nc3ccnc4ccc(-c5ccc(OC)cc5)cc34)cc2)CC1` (centres unmarked) [N-(4-(4-sec-butylpiperazin-1-yl)phenyl)-6-(4-methoxyphenyl)quinolin-4-amine]: “MAPKAPK2”; for `c1ccc(-c2ccc3nccc(Nc4ccc(N5CCN(C6CCCC6)CC5)cc4)c3c2)cc1` [N-(4-(4-cyclopentylpiperazin-1-yl)phenyl)-6-phenylquinolin-4-amine]: “MAPKAPK2”; for `Cc1ccc(-c2ccc3nccc(Nc4ccc(N5CCC(N(C)C)C5)cc4)c3c2)cc1C` (centres unmarked) [N-(4-(3-(dimethylamino)pyrrolidin-1-yl)phenyl)-6-(3,4-dimethylphenyl)quinolin-4-amine]: “MAPKAPK2”.
Under `CN(C)CC1CCCN(c2ccc(Nc3ccnc4ccc(-c5ccc(C#N)cc5)cc34)cc2)C1` (centres unmarked) [4-(4-(4-(3-((dimethylamino)methyl)piperidin-1-yl)phenylamino)quinolin-6-yl)benzonitrile] stands “MAPKAPK2”; under `CCCN(c1ccc(N2CCN(C)CC2)cc1)c1ccnc2ccc(-c3ccc(OC)cc3)cc12` [6-(4-methoxyphenyl)-N-(4-(4-methylpiperazin-1-yl)phenyl)-N-propylquinolin-4-amine], “MAPKAPK2”; under `CN(CCC(F)(F)F)C1CCN(c2ccc(Nc3ccnc4ccc(-c5ccc(C#N)cc5)cc34)cc2)C1` (centres unmarked) [4-(4-(4-(3-(methyl(3,3,3-trifluoropropyl)amino)pyrrolidin-1-yl)phenylamino)quinolin-6-yl)benzonitrile], “MAPKAPK2”.
Regarding `CC(C)N1CCN(c2ccc(Nc3ccnc4ccc(-c5ccc(C#N)cc5)cc34)cc2)CC1` [4-(4-(4-(4-isopropylpiperazin-1-yl)phenylamino)quinolin-6-yl)benzonitrile], the Activity result is listed as “MAPKAPK2”.
The same measure for `CN(C)C1CCN(c2ccc(Nc3ccnc4ccc(-c5ccc(C#N)c(F)c5)cc34)cc2)C1` (centres unmarked) [4-(4-(4-(3-(dimethylamino)pyrrolidin-1-yl)phenylamino)quinolin-6-yl)-2-fluorobenzonitrile]: “MAPKAPK2”; for `COc1cccc(-c2ccc3nccc(Nc4ccc(N5CCC(N(C)C)C5)cc4)c3c2)c1` (centres unmarked) [N-(4-(3-(dimethylamino)pyrrolidin-1-yl)phenyl)-6-(3-methoxyphenyl)quinolin-4-amine]: “MAPKAPK2”; for `CCCN(c1ccc(N2CCN(C)CC2)cc1)c1ccnc2ccc(-c3ccccc3)cc12` [N-(4-(4-methylpiperazin-1-yl)phenyl)-6-phenyl-N-propylquinolin-4-amine]: “MAPKAPK2”.
The same measure for `CN(C)[C@H]1CCN(c2ccc(Nc3ccnc4ccc(-c5ccc(C#N)cc5)cc34)cc2)C1` [(S)-4-(4-(4-(3-(dimethylamino)pyrrolidin-1-yl)phenylamino)quinolin-6-yl)benzonitrile]: “MAPKAPK2”; for `COCCN1CCN(c2ccc(Nc3ccnc4ccc(-c5ccccc5)cc34)cc2)CC1` [N-(4-(4-(2-methoxyethyl)piperazin-1-yl)phenyl)-6-phenylquinolin-4-amine]: “MAPKAPK2”.
Take `CCC(C)N1CCN(c2ccc(Nc3ccnc4ccc(-c5ccccc5)cc34)cc2)CC1` (centres unmarked) [N-(4-(4-sec-butylpiperazin-1-yl)phenyl)-6-phenylquinolin-4-amine]: the Activity entry is given as “MAPKAPK2”.
The same measure for `CCCCN1CCN(c2ccc(Nc3ccnc4ccc(-c5ccccc5)cc34)cc2)CC1` [N-(4-(4-butylpiperazin-1-yl)phenyl)-6-phenylquinolin-4-amine]: “MAPKAPK2”.
The same measure for `Cc1ccc(-c2ccc3nccc(Nc4ccc(N5CCC(N(C)C)C5)cc4)c3c2)cc1F` (centres unmarked) [N-(4-(3-(dimethylamino)pyrrolidin-1-yl)phenyl)-6-(3-fluoro-4-methylphenyl)quinolin-4-amine]: “MAPKAPK2”; for `CN1CCN(c2ccc(Oc3ccnc4ccc(-c5ccc(Cl)cc5)cc34)cc2)CC1` [6-(4-chlorophenyl)-4-(4-(4-methylpiperazin-1-yl)phenoxy)quinoline]: “MAPKAPK2”; for `CN(C)CC1CCN(c2ccc(Nc3ccnc4ccc(-c5ccc(C#N)cc5)cc34)cc2)CC1` [4-(4-(4-(4-((dimethylamino)methyl)piperidin-1-yl)phenylamino)quinolin-6-yl)benzonitrile]: “MAPKAPK2”.
The same measure for `CN(C)CC1CCCN1c1ccc(Nc2ccnc3ccc(-c4ccc(C#N)cc4)cc23)cc1` (centres unmarked) [4-(4-(4-(2-((dimethylamino)methyl)pyrrolidin-1-yl)phenylamino)quinolin-6-yl)benzonitrile]: “MAPKAPK2”.
As to `Cc1cc(-c2ccc3nccc(Nc4ccc(N5CCC(N(C)C)C5)cc4)c3c2)cnc1Cl` (centres unmarked) [6-(6-chloro-5-methylpyridin-3-yl)-N-(4-(3-(dimethylamino)pyrrolidin-1-yl)phenyl)quinolin-4-amine], the Activity entry was “MAPKAPK2”.
Under `CN(C)C1CCN(c2ccc(Nc3ccnc4ccc(-c5ccc(Cl)c(Cl)c5)cc34)cc2)C1` (centres unmarked) [6-(3,4-dichlorophenyl)-N-(4-(3-(dimethylamino)pyrrolidin-1-yl)phenyl)quinolin-4-amine] stands “MAPKAPK2”; under `CN(C)C1CCN(c2ccc(Nc3ccnc4ccc(-c5ccc6c(c5)OCO6)cc34)cc2)C1` (centres unmarked) [6-(benzo[d][1,3]dioxol-5-yl)-N-(4-(3-(dimethylamino)pyrrolidin-1-yl)phenyl)quinolin-4-amine], “MAPKAPK2”; under `CN(C)C1CCN(c2ccc(Nc3ccnc4ccc(-c5cncc(C(=O)O)c5)cc34)cc2)C1` (centres unmarked) [5-(4-(4-(3-(dimethylamino)pyrrolidin-1-yl)phenylamino)quinolin-6-yl)nicotinic acid], “MAPKAPK2”.
